Publication PMC6384650, “Phenolic Compounds of Catalpa speciosa, Taxus cuspidata, and Magnolia acuminata have Antioxidant and Anticancer Activity” (Molecules, 2019)
≈ marks a conversion by molar mass, not a printed value. Counter-ions that a name gives are not always drawn.

How the values were obtained:
[1] = system: MCF-7, HeLa, Jurkat, T24, and HT-29 cells; assay: MTT antiproliferative assay, cancer cell line panel; assay type: cell-based; settings: most cancer cells
Protocol: The samples were ground and then dissolved in 3 mL methanol (99%) for 1 h in the dark at 25 °C. Bark solutions were centrifuged for 5 min at 10,000 rpm (7000 × g) and the supernatant was obtained (~2.7 mL). The samples were passed through a 0.45 μm polytetrafluroethylene (PTFE) nylon filter and then stored at −80 °C. Analytical grade chemicals (Sigma Aldrich, Germany) were used in the bioassays. The cancer cell lines, including cervical adenocarcinoma (HeLa), breast adenocarcinoma (MCF-7), T-cell lymphoblast like (Jurkat), urinary bladder carcinoma (T24), and colon adenocarcinoma (HT-29), were obtained from the American Type Culture Collection (ATCC). […] The cells were grown in 75 cm^2 flasks in MEM supplemented with 10% FBS, 17.8 mM NaHCO3, 0.1 mM non-essential amino acids, and 1 mM sodium pyruvate. […] Sterilin-filtered leaf extracts were added to the culture media in microtiter plates. […] Untreated cells were considered used as negative controls and vinblastine sulfate and taxol treatment were used as the positive controls. After incubation of the culture medium for 2 days at 37 °C and 5% CO2, phosphate buffer saline (PBS) washes were performed to remove extract traces and the medium supplied was 12 mM MTT dissolved in PBS. Subsequently, 0.04 N HCl dissolved in isopropanol was mixed in each well, left to stand for 40 min, and the absorbance at 570 nm was determined by using a microplate reader (Thermo Fisher Scientific, Waltham, Massachusetts, USA). The percentage inhibition of antiproliferation activity was calculated in triplicate: % Inhibition = (Abs.570 nm control—Abs.570 nm sample)/Abs.570 nm control × 100. Subsequently, IC50 values were obtained by plotting the percentage of cell viability against the extract concentration and expressed in µg/mL.

[2] = system: HT-29 cells (colon adenocarcinoma); assay: MTT antiproliferative assay, HT-29; assay type: cell-based; settings: 2 days incubation; for IC50: Homo sapiens, HT-29, 48 h, read-out: In vitro antiproliferative activity IC50, HT-29
Protocol: (§1) Fresh bark (0.25 g) was dried at 35 °C until a constant weight was obtained. The samples were ground and then dissolved in 3 mL methanol (99%) for 1 h in the dark at 25 °C. Bark solutions were centrifuged for 5 min at 10,000 rpm (7000 × g) and the supernatant was obtained (~2.7 mL). The samples were passed through a 0.45 μm polytetrafluroethylene (PTFE) nylon filter and then stored at −80 °C. Analytical grade chemicals (Sigma Aldrich, Germany) were used in the bioassays. The cancer cell lines, including cervical adenocarcinoma (HeLa), breast adenocarcinoma (MCF-7), T-cell lymphoblast like (Jurkat), urinary bladder carcinoma (T24), and colon adenocarcinoma (HT-29), were obtained from the American Type Culture Collection (ATCC).
(§2) The antiproliferative activity of bark extracts was examined in different cancer cells lines (HeLa, MCF-7, Jurkat, HT-29, and T24) and in normal cells (HEK-293) by using a modified 3-(4,5-dimethylthiazol-2-yl)-2,5-diphenyltetrazolium bromide (MTT) method. The cells were grown in 75 cm^2 flasks in MEM supplemented with 10% FBS, 17.8 mM NaHCO3, 0.1 mM non-essential amino acids, and 1 mM sodium pyruvate. They were seeded into 96-well plates at a density of 4 × 10^−4 per well, left to stand in 270 µL of medium, and incubated in an atmosphere of 37 °C and 5% CO2. Sterilin-filtered leaf extracts were added to the culture media in microtiter plates. Five doses of bark extracts were used at final concentrations of 50, 100, 200, 300, and 400 µg/mL in culture medium. Untreated cells were considered used as negative controls and vinblastine sulfate and taxol treatment were used as the positive controls. After incubation of the culture medium for 2 days at 37 °C and 5% CO2, phosphate buffer saline (PBS) washes were performed to remove extract traces and the medium supplied was 12 mM MTT dissolved in PBS. Subsequently, 0.04 N HCl dissolved in isopropanol was mixed in each well, left to stand for 40 min, and the absorbance at 570 nm was determined by using a microplate reader (Thermo Fisher Scientific, Waltham, Massachusetts, USA). The percentage inhibition of antiproliferation activity was calculated in triplicate:
(§3) % Inhibition = (Abs.570 nm control—Abs.570 nm sample)/Abs.570 nm control × 100. Subsequently, IC50 values were obtained by plotting the percentage of cell viability against the extract concentration and expressed in µg/mL.

[3] = system: MCF-7 cells (breast adenocarcinoma); assay: MTT antiproliferative assay, MCF-7; assay type: cell-based; settings: 2 days incubation; for IC50: Homo sapiens, MCF7, 48 h, read-out: In vitro antiproliferative activity IC50, MCF-7
Protocol: as §1, §2, §3

HEK-293 cells = assay: MTT antiproliferative assay, normal HEK-293 cells; assay type: cell-based; settings: 2 days incubation; for IC50: Homo sapiens, HEK293, 48 h, read-out: In vitro antiproliferative activity IC50, HEK-293
Protocol: as §2, §3

[4] = system: Jurkat cells (T-cell lymphoblast like); assay: MTT antiproliferative assay, Jurkat; assay type: cell-based; settings: 2 days incubation; for IC50: Homo sapiens, Jurkat, 48 h, read-out: In vitro antiproliferative activity IC50, Jurkat
Protocol: as §1, §2, §3

[5] = system: T24 cells (urinary bladder carcinoma); assay: MTT antiproliferative assay, T24; assay type: cell-based; settings: 2 days incubation; for IC50: Homo sapiens, T-24, 48 h, read-out: In vitro antiproliferative activity IC50, T24
Protocol: as §1, §2, §3

[6] = system: HeLa cells (cervical adenocarcinoma); assay: MTT antiproliferative assay, HeLa; assay type: cell-based; settings: 2 days incubation; for IC50: Homo sapiens, HeLa, 48 h, read-out: In vitro antiproliferative activity IC50, HeLa
Protocol: as §1, §2, §3

[7] = DPPH free radical scavenging assay; settings: 30 min incubation, absorbance 517 nm
Protocol: (§4) The DPPH and β-carotene-linoleic acid assays were used in the Faculty of Food and Agricultural Sciences, King Saud University to determine the antioxidant activities of bark extract. For the DPPH assay, the samples were incubated for 30 min and the absorbance of the samples at 517 nm was measured. In the β-carotene-linoleic acid assay, the absorbance of the samples at 470 nm was measured. […] A standard antioxidant (butylated hydroxytoluene, BHT) was used as a positive control and the inhibition by the concentration of each sample was compared with that of the BHT and blank. The antioxidant activities were repeated twice in duplicates.

[8] = β-carotene-linoleic acid assay; settings: absorbance 470 nm
Protocol: as §4

cancer cells = assay: Apoptotic cell population by flow cytometry (Annexin V); assay type: cell-based; settings: treatment at IC50, 24/48 h, versus untreated control
Protocol: Flow cytometry (FAC Scan, Becton Dickinson, Iowa, USA) was used to measure the apoptotic cell population. […] The cells were detached by using trypsin (0.25%) in Hank’s balanced salt solution (Thermo Fisher Scientific, Berlin, Germany). For staining the cells, the Annexin V apoptosis detection kit (Sigma, St. Louis, MO, USA) was used. Briefly, the cells were incubated in the dark at 37 °C for 15 min and washed with cold PBS, and the apoptotic populations were shown by the flow cytometer in quadrants: Lower left (viable cells), upper left (necrotic cells), lower right (early apoptotic cells), and upper right (late apoptotic cells).

Hydroxycaffeic acid
Antiproliferative activity against cancer cells (in words) [1]: notable antiproliferative activity against most cancer cells
In vitro antiproliferative activity IC50, HT-29 [2]: 113.15 ± 2.9 µg/mL
In vitro antiproliferative activity IC50, MCF-7 [3]: 58.11 ± 0.9 µg/mL
In vitro antiproliferative activity IC50, HEK-293 (HEK-293 cells): ˃400 µg/mL
In vitro antiproliferative activity IC50, Jurkat [4]: 63.09 ± 1.4 µg/mL
In vitro antiproliferative activity IC50, T24 [5]: 176.12 ± 3.6 µg/mL
In vitro antiproliferative activity IC50, HeLa [6]: 65.31 ± 2.4 µg/mL

CC(=O)O[C@H]1C(=O)[C@@]2(C)[C@H]([C@H](OC(=O)c3ccccc3)[C@]3(O)C[C@H](OC(=O)[C@H](O)[C@@H](NC(=O)c4ccccc4)c4ccccc4)C(C)=C1C3(C)C)[C@]1(OC(C)=O)CO[C@@H]1C[C@@H]2O [Taxol]
IC50 [3]: 0.09 ± 0.009 µg/mL (≈ 0.105 µM)

CC[C@]1(O)C[C@H]2CN(CCc3c([nH]c4ccccc34)[C@@](C(=O)OC)(c3cc4c(cc3OC)N(C=O)[C@H]3[C@@](O)(C(=O)OC)[C@H](OC(C)=O)[C@]5(CC)C=CCN6CC[C@]43[C@@H]65)C2)C1 [Vincristine]
IC50 [2]: 47.3 ± 0.2 µg/mL (≈ 57.3 µM)
IC50 [3]: 4.63 ± 1.8 µg/mL (≈ 5.61 µM)
IC50 (HEK-293 cells): 78.3 ± 1.6 µg/mL (≈ 94.9 µM)
IC50 [4]: 0.4 ± 0.05 µg/mL (≈ 0.485 µM)
IC50 [5]: 89.8 ± 2.5 µg/mL (≈ 109 µM)
IC50 [6]: 8.5 ± 0.1 µg/mL (≈ 10.3 µM)

Cc1cc(C(C)(C)C)c(O)c(C(C)(C)C)c1 [BHT, butylated hydroxytoluene]
DPPH Free Radical Scavenging Activity (IC50) [7]: 2.9 ± 0.1c µg mL^−1
β-Carotene-Linoleic Acid Assay (IC50) [8]: 3.2 ± 0.1c µg mL^−1

COc1cc(/C=C/C(=O)O)ccc1O [Ferulic acid]
Antiproliferative activity against cancer cells (in words) [1]: notable antiproliferative activity against most cancer cells
In vitro antiproliferative activity IC50, HT-29 [2]: 126.26 ± 4.4 µg/mL
In vitro antiproliferative activity IC50, MCF-7 [3]: 43.85 ± 1.3 µg/mL
In vitro antiproliferative activity IC50, HEK-293 (HEK-293 cells): ˃400 µg/mL
In vitro antiproliferative activity IC50, Jurkat [4]: 39.11 ± 2.3 µg/mL
In vitro antiproliferative activity IC50, T24 [5]: 227.26 ± 5.1 µg/mL
In vitro antiproliferative activity IC50, HeLa [6]: 51.73 ± 3.5 µg/mL

O=C(O)c1ccc(O)c(O)c1 [Protocatechuic acid, 3,4-dihydroxybenzoic acid]
Antiproliferative activity against cancer cells (in words) [1]: notable antiproliferative activity against most cancer cells
IC50 [2]: 95.3 ± 3.3 µg/mL (≈ 619 µM)
IC50 [3]: 19 ± 2.1 µg/mL (≈ 123 µM)
IC50 (HEK-293 cells): > 400 µg/mL
IC50 [4]: 47.4 ± 2.1 µg/mL (≈ 307 µM)
IC50 [5]: 176 ± 2.1 µg/mL (≈ 1140 µM)
IC50 [6]: 39.1 ± 2.3 µg/mL (≈ 254 µM)

CC[C@]1(O)C[C@@H]2CN(CCc3c([nH]c4ccccc34)[C@@](C(=O)OC)(c3cc4c(cc3OC)N(C)[C@H]3[C@@](O)(C(=O)OC)[C@H](OC(C)=O)[C@]5(CC)C=CCN6CC[C@]43[C@@H]65)C2)C1 [Vinblastine sulfate]
IC50 [2]: 21 ± 0.1 µg/mL
IC50 (HEK-293 cells): 50.1 ± 2.3 µg/mL
IC50 [4]: 0.1 ± 0.09 µg/mL
IC50 [5]: 65.7 ± 2.1 µg/mL
IC50 [6]: 2.7 ± 0.06 µg/mL

O.Oc1cc(O)c2c(c1)O[C@H](c1ccc(O)c(O)c1)[C@@H](O)C2 [Catechin]
Antiproliferative activity against cancer cells (in words) [1]: notable antiproliferative activity against most cancer cells
In vitro antiproliferative activity IC50, HT-29 [2]: 96.16 ± 1.5 µg/mL
In vitro antiproliferative activity IC50, MCF-7 [3]: 17.64 ± 1.8 µg/mL
In vitro antiproliferative activity IC50, HEK-293 (HEK-293 cells): ˃400 µg/mL
In vitro antiproliferative activity IC50, Jurkat [4]: 38.16 ± 0.7 µg/mL
In vitro antiproliferative activity IC50, T24 [5]: 183.28 ± 4.3 µg/mL
Accumulation of necrotic, early and late apoptotic cells (cancer cells): high accumulation of early and late apoptotic cells
In vitro antiproliferative activity IC50, HeLa [6]: 36.48 ± 1.2 µg/mL
